Assay results taken from patent publication US20060223792A1, “Phenyl and pyridyl LTA4H modulators” (priority 2005, published 2006).
Counter-ions that a name gives are not always drawn. Like-named read-outs stand apart in the source and are kept apart here.

How the values were obtained:
[1] = system: LTB4 production by calcium ionophore-stimulated murine blood; test: LTB4 production by calcium ionophore-stimulated murine blood for LTA4H inhibitor activity; type: cell-based, CD-1 mice; details: diluted CD-1 mouse whole blood, calcium ionophore A23187, LTB4 by enzyme-linked immunoassay
Experimental: LTB4 Production by Calcium Ionophore-Stimulated Murine Blood for LTA4H Inhibitor Activity
CD-1 mice were sacrificed, and blood was collected in heparin-containing syringes by cardiac puncture. The blood was diluted 1:15 with RPMI-1640 medium, and 200-μL aliquots of the diluted blood were added to wells of a 96-well microtiter plate. LTA4H inhibitor test compounds were prepared at different concentrations in RPMI-1640 medium containing […], and 20 μL of each test solution was added to a well containing diluted whole blood (final DMSO concentration of 0.1%). After the microtiter plate contents were incubated for 15 min at 37° C. in a humidified incubator, calcium ionophore A23187 (Sigma Chemical Co., St. Louis, Mo.) was added to each sample well (final concentration=20 ng/mL). The incubation was continued under the same conditions for an additional 10 min to allow LTB4 formation. The reaction was terminated by centrifugation (833×g, 10 min at 4° C.), and supernatants were analyzed for LTB4 by a commercially available enzyme-linked immunoassay (Cayman Chemical Co.) according to the manufacturer's instructions. Positive controls, under essentially identical conditions but without addition of an inhibitor compound, and negative unstimulated controls, containing all assay components except calcium ionophore, were routinely run in each experiment. IC50 values were determined by fitting the activity data at different compound concentrations to a 4-parameter equation using the Grafit program (Erithacus software).

[2] = biological target: T1, recombinant human LTA4 hydrolase (rhLTA4H) (Homo sapiens, UniProt P09960); test: Recombinant human LTA4 hydrolase assay for LTA4 hydrolase inhibitor activity; type: biochemical
T1 construct: made in house; host or cells: Spodoptera frugiperda (Sf-9) cells, baculovirus (pFastBac1)
T1 sequence (P09960 1-611): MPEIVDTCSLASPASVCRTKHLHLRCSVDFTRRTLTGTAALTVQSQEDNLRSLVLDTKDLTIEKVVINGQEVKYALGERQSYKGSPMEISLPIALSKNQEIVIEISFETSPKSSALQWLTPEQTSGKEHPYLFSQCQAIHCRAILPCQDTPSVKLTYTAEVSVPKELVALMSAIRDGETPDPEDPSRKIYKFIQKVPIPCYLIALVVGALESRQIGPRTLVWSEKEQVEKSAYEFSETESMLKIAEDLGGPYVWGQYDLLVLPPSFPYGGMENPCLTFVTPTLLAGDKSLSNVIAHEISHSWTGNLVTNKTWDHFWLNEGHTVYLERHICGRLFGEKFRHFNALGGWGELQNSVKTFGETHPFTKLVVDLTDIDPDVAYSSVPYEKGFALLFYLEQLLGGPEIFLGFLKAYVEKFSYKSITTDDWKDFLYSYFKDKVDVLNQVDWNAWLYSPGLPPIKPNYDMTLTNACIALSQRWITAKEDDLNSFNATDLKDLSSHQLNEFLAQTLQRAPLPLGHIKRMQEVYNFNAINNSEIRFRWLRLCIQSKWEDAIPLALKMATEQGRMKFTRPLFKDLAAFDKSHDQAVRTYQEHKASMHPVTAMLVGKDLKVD
Experimental: Recombinant Human LTA4 Hydrolase Assay for LTA4 Hydrolase Inhibitor Activity
Compounds of the present invention were tested for LTA4 hydrolase inhibitor activity against recombinant human LTA4 hydrolase (rhLTA4H). Vectors were prepared and used to express rhLTA4H essentially as follows: LTA4 hydrolase encoding DNA was amplified by polymerase chain reaction (PCR) using a human placental cDNA library as a template. Oligonucleotide primers for the PCR reaction were based on the 5′-end, and the complement of the 3′-end, of the published nucleotide sequence for the coding region of the human LTA4 hydrolase gene (C. D. Funk et al., Proc. Natl. Acad. Sci. USA 1987, 84:6677-6681). The amplified […] DNA fragment encoding LTA4 hydrolase was isolated and cloned into the pFastBac1 vector (Invitrogen). Recombinant baculovirus was generated as described by the manufacturer, and used to infect Spodoptera frugiperda (Sf-9) cells. Recombinant LTA4 hydrolase enzyme was purified from the infected Sf-9 cells essentially as described by J. K. Gierse et al. (Protein Expr. Purif. 1993, 4(5):358-366). The purified enzyme solution was adjusted to contain 0.29 mg/mL LTA4 hydrolase, 50 mM Tris (pH 8.0),150 mM NaCl, 5 mM dithiothreitol, 50% glycerol, and EDTA-free Complete protease inhibitor cocktail (Roche). The specific activity of the enzyme was about 3.8 μmol/min/mg.
LTA4 substrate was prepared from the methyl ester of LTA4 (Cayman Chemical) by treatment with 67 equiv. of NaOH under nitrogen at rt for 40 min. The LTA4 substrate in its free acid form was kept frozen at −80° C. until needed. Each compound was diluted to different concentrations in assay buffer (0.1 M potassium phosphate (pH 7.4), 5 mg/mL fatty acid free BSA) containing 10% DMSO. A 25-μL aliquot of each compound dilution was incubated for 10 min at rt with an equal volume of assay buffer containing 36 ng of recombinant human LTA4H. The solution was then adjusted to 200 μL with assay buffer. LTA4 (free acid) was thawed and diluted in assay buffer to a concentration of 357 ng/mL, and 25 μL (9 ng) of LTA4 substrate was added to the reaction mixture (total volume=225 μL) at time zero. Each reaction was carried out at rt for 10 min. The reaction was stopped by diluting 10 μL of the reaction mixture with 200 μL of assay buffer. LTB4 was quantifiedin the diluted sample by a commercially available enzyme-linked immunoassay (Cayman Chemical Co.), as recommended by the manufacturer. Positive controls, under essentially identical conditions but without addition of an inhibitor compound, and negative controls, containing all assay components except enzyme, were routinely run in each experiment. IC50 values were determined by fitting the activity data at different compound concentrations to a 4-parameter equation using the Grafit program (Erithacus software).
The IC50 values presented in the table below should be expected to fall within the typical three-fold variability of assays of this type. The values presented here are, in general, an average of one to three determinations.

[3] = recombinant human LTA4H, LTB4 quantified by enzyme-linked immunoassay, average of one to three determinations, read-out: IC50

Structure (SMILES)	IC50 [1]	IC50 [2, 3]	IC50 [2]
O=C(Nc1cccc(O)c1)Oc1ccc(OCCN2CCC(O)(c3ccccc3)CC2)cc1 [Example 11, (3-hydroxy-phenyl)-carbamic acid 4-[2-(4-hydroxy-4-phenyl-piperidin-1-yl)-ethoxy]-phenyl ester]	12 nM	0.3 nM	
CCCCN(CCCC)CCCc1ccc(OC(=O)Nc2ccccc2)cc1 [Example 12, Phenyl-carbamic acid 4-(3-dibutylamino-propyl)-phenyl ester hydrochloride]	88 nM		3 nM
O=C(Cc1ccc(OCCN2CCC(O)(c3ccccc3)CC2)cc1)Nc1ccccc1O [Example 13, N-(2—hydroxy-phenyl)-2-{4-[2-(4-hydroxy-4-phenyl-piperidin-1-yl)-ethoxy]-phenyl}-acetamide]	47 nM	10 nM	
O=C(COc1ccc(OCCN2CCCCC2)cc1)c1ccccc1 [Example 24, 1-Phenyl-2-[4-(2-piperidin-1-yl-ethoxy)-phenoxy]-ethanone]	202 nM	58 nM	
O=C(O)C1CCN(Cc2ccc(OCCc3ccccc3)nc2)CC1 [Example 94, 1-(6-Phenethyloxy-pyridin-3-ylmethyl)-piperidine-4-carboxylic acid]		254 nM	
c1ccc(CCOc2ccc(CN3CCCCC3)cc2)cc1 [Example 95, 1-(4-Phenethyloxy-benzyl)-piperidine]		36 nM	
c1ccc(CCCOc2ccc(CN3CCCCC3)cc2)cc1 [Example 97, 1-[4-(3-Phenyl-propoxy)-benzyl]-piperidine]		31 nM	
c1ccc(CCCCOc2ccc(CN3CCCCC3)cc2)cc1 [Example 98, 1-[4-(4-Phenyl-butoxy)-benzyl]-piperidine]		167 nM	
O=C1NCCC12CCN(Cc1ccc(OCCc3ccccc3)cc1)CC2 [Example 100, 8-(4-Phenethyloxy-benzyl)-2,8-diaza-spiro[4.5]decan-1-one]		121 nM	
NC(=O)C1CCN(Cc2ccc(OCCc3ccccc3)cc2)CC1 [Example 101, 1-(4-Phenethyloxy-benzyl)-piperidine-4-carboxylic acid amide]		28 nM	
NC(=O)C1CCCN(Cc2ccc(OCCc3ccccc3)cc2)C1 (stereo not shown) [Example 102, 1-(4-Phenethyloxy-benzyl)-piperidine-3-carboxylic acid amide]		36 nM	
OC1CCN(Cc2ccc(OCCc3ccccc3)cc2)CC1 [Example 103, 1-(4-Phenethyloxy-benzyl)-piperidin-4-ol]		70 nM	
NC1CCN(Cc2ccc(OCCc3ccccc3)cc2)CC1 [Example 105, 1-(4-Phenethyloxy-benzyl)-piperidin-4-ylamine]		25 nM	
CCOC(=O)C1CCN(Cc2ccc(OCCCc3ccccc3)cc2)CC1 [Example 106, 1-[4-(3-Phenyl-propoxy)-benzyl]-piperidine-4-carboxylic acid ethyl ester]		154 nM	
OC1CCN(Cc2ccc(OCCCc3ccccc3)cc2)CC1 [Example 108, 1-[4-(3-Phenyl-propoxy)-benzyl]-piperidin-4-ol]		16 nM	
OC1CCCN(Cc2ccc(OCCCc3ccccc3)cc2)C1 (stereo not shown) [Example 109, 1-[4-(3-Phenyl-propoxy)-benzyl]-piperidin-3-ol]		23 nM	
NC(=O)C1CCN(Cc2ccc(OCCCc3ccccc3)cc2)CC1 [Example 110, 1-[4-(3-Phenyl-propoxy)-benzyl]-piperidine-4-carboxylic acid amide]		9 nM	
NC(=O)C1CCCN(Cc2ccc(OCCCc3ccccc3)cc2)C1 (stereo not shown) [Example 111, 1-[4-(3-Phenyl-propoxy)-benzyl]-piperidine-3-carboxylic acid amide]		95 nM	
NC(=O)NC1CCN(Cc2ccc(OCCc3ccccc3)cc2)CC1 [Example 114, [1-(4-Phenethyloxy-benzyl)-piperidin-4-yl]-urea]		17 nM	
COC(=O)NC1CCN(Cc2ccc(OCCc3ccccc3)cc2)CC1 [Example 115, [1-(4-Phenethyloxy-benzyl)-piperidin-4-yl]-carbamic acid methyl ester]		78 nM	
CCOC(=O)C1CCN(CCOc2ccc(OCCCc3ccccc3)cc2)CC1 [Example 116, 1-{2-[4-(3-Phenyl-propoxy)-phenoxy]-ethyl}-piperidine-4-carboxylic acid ethyl ester]		195 nM	
NC1CCN(Cc2ccc(OCCCc3ccccc3)cc2)CC1 [Example 118, 1-[4-(3-Phenyl-propoxy)-benzyl]-piperidin-4-ylamine]		40 nM	
COC(=O)NC1CCN(Cc2ccc(OCCCc3ccccc3)cc2)CC1 [Example 121, {1-[4-(3-Phenyl-propoxy)-benzyl]-piperidin-4-yl}-carbamic acid methyl ester]		8 nM	
NC(=O)NC1CCN(Cc2ccc(OCCCc3ccccc3)cc2)CC1 [Example 122, {1-[4-(3-Phenyl-propoxy)-benzyl]-piperidin-4-yl}-urea]		35 nM	
O=C(Oc1ccc(OCCN2CCCCC2)cc1)C(Cl)c1ccccc1 (stereo not shown) [Example 123, Chloro-phenyl-acetic acid 4-(2-piperidin-1-yl-ethoxy)-phenyl ester]		150 nM	
O=C(Oc1ccc(OCCN2CCCCC2)cc1)C1Cc2ccccc2C1 [Example 124, Indan-2-carboxylic acid 4-(2-piperidin-1-yl-ethoxy)-phenyl ester]		184 nM	
OC1c2ccccc2CC1Oc1ccc(OCCN2CCCCC2)cc1 (stereo not shown) [Example 125, 2-[4-(2-Piperidin-1-yl-ethoxy)-phenoxy]-indan-1-ol]		192 nM	
O=C1c2ccccc2CC1Oc1ccc(OCCN2CCCCC2)cc1 (stereo not shown) [Example 126, 2-[4-(2-Piperidin-1-yl-ethoxy)-phenoxy]-indan-1-one]		64 nM	
Fc1cccc(CCOc2ccc(OCCN3CCCCC3)cc2)c1 [Example 165, 1-(2-{4-[2-(3-Fluoro-phenyl)-ethoxy]-phenoxy}-ethyl)-piperidine]		900 nM	
Fc1ccc(CCOc2ccc(OCCN3CCCCC3)cc2)cc1 [Example 166, 1-(2-{4-[2-(4-Fluoro-phenyl)-ethoxy]-phenoxy}-ethyl)-piperidine]		248 nM	
